Results from patent publication US9302999B2, “Substituted triazoles as herbicides” (E. I. DU PONT DE NEMOURS AND COMPANY, priority 2012, dated 2016).

What was measured:
[1] = test system: radish, wild (wild radish, Raphanus raphanistrum); assay: Test D pre-/postemergence: radish, wild; assay type: in vivo
Text: Seeds of plant species selected from bluegrass (annual bluegrass, Poa annua), blackgrass (Alopecurus myosuroides), canarygrass (Phalaris minor), chickweed (common chickweed, Stellaria media), galium (catchweed bedstraw, Galium aparine), bromegrass, downy (downy bromegrass, Bromus tectorum), field poppy (Papaver rhoeas), field violet (Viola arvensis), foxtail, green (green foxtail, Setaria viridis), deadnettle (henbit deadnettle, Lamium amplexicaule), ryegrass, Italian (Italian ryegrass, Lolium multiflorum), kochia (Kochia scoparia), lambsquarters (Chenopodium album), oilseed rape (Brassica napus), pigweed (Amaranthus retroflexus), Russian thistle (Salsola iberica), chamomile (scentless chamomile, Matricaria inodora), speedwell (bird's-eye speedwell, Veronica persica), barley, spring (spring barley, Hordeum vulgare), wheat, spring (spring wheat, Triticum aestivum), buckwheat, wild (wild buckwheat, Polygonum convolvulus), mustard, wild (wild mustard, Sinapis arvensis), oat, wild (wild oat, Avena fatua), radish, wild (wild radish, Raphanus raphanistrum), windgrass (Apera spica-venti), barley, winter (winter barley, Hordeum vulgare), and wheat, winter (winter wheat, Triticum aestivum) were planted into a silt loam soil and treated preemergence with test chemicals formulated in a non-phytotoxic solvent mixture which included a surfactant. At the same time, these same crop and weed species were planted in pots containing the planting medium comprising spaghnum peat moss, vermiculite, wetting agent and starter nutrients and treated with postemergence applications of the test chemicals formulated in the same manner. Plants ranged in height from 2 to 18 cm (1- to 4-leaf stage).
(§1) Treated plants and controls were maintained in a controlled growth environment for 14 to 21 days after which time all species were compared to controls and visually evaluated. Plant response ratings, summarized in Table D, are based on a scale of 0 to 100 where 0 is no effect and 100 is complete control. A dash (-) response means no test result.

Barnyardgrass = assay: Test C postemergence: barnyardgrass; assay type: in vivo, Echinochloa crus-galli; conditions: 125 g ai/ha, scale 0 to 100, 0 no effect, 100 complete control
Text: Seeds of plant species selected from blackgrass (Alopecurus myosuroides), bromegrass, downy (downy bromegrass, Bromus tectorum), foxtail, green (green foxtail, Setaria viridis), ryegrass, Italian (Italian ryegrass, Lolium multiflorum), winter wheat (Triticum aestivum), wild oat (Avena fatua), galium (catchweed bedstraw, Galium aparine), bermudagrass (Cynodon dactylon), surinam grass (Brachiaria decumbens), cocklebur (common cocklebur, Xanthium strumarium), corn (Zea mays), large crabgrass (Digitaria sanguinalis), woolly cupgrass (Eriochloa villosa), foxtail, giant (giant foxtail, Setaria faberii), goosegrass (Eleusine indica), johnsongrass (Sorghum halepense), kochia (Kochia scoparia), lambsquarters (Chenopodium album), morningglory (Ipomoea coccinea), nightshade (eastern black nightshade, Solanum ptycanthum), nutsedge, yellow (yellow nutsedge, Cyperus esculentus), pigweed (Amaranthus retroflexus), ragweed (common ragweed, Ambrosia elation), soybean (Glycine max), common (oilseed) sunflower (Helianthus annuus), Russian thistle (Salsola kali) and velvetleaf (Abutilon theophrasti) were planted into a blend of loam soil and sand and treated preemergence with test chemicals formulated in a non-phytotoxic solvent mixture which included a surfactant.
At the same time, plants selected from these crop and weed species and also barley (winter barley, Hordeum vulgare), canarygrass (Phalaris minor), chickweed (common chickweed, Stellaria media) windgrass (Apera spica-venti) and deadnettle (henbit deadnettle, Lamium amplexicaule) were planted in pots containing Redi-Earth® planting medium (Scotts Company, 14111 Scottslawn Road, Marysville, Ohio 43041) comprising spaghnum peat moss, vermiculite, wetting agent and starter nutrients and treated with postemergence applications of test chemicals formulated in the same manner. Plants ranged in height from 2 to 18 cm (1- to 4-leaf stage) for postemergence treatments.
as §1, with “greenhouse” for “controlled growth environment”, “13” for “14”, “15 days,” for “21 days”, “C,” for “D,”

[2] = test system: crabgrass, large (large crabgrass, Digitaria sanguinalis); assay: Test F pre-/postemergence: crabgrass, large; assay type: in vivo; conditions: Preemergence
Text: (§2) Seeds of plant species selected from corn (Zea mays), soybean (Glycine max), velvetleaf (Abutilon theophrasti), lambsquarters (Chenopodium album), poinsettia, wild (wild poinsettia, Euphorbia heterophylla), pigweed, palmer (palmer pigweed, Amaranthus palmeri), waterhemp (common waterhemp, Amaranthus rudis), surinam grass (Brachiaria decumbens), crabgrass, Brazil (Brazilian crabgrass, Digitaria horizontalis), panicum, fall (fall panicum Panicum dichotomiflorum), crabgrass, large (large crabgrass, Digitaria sanguinalis), foxtail, giant (giant foxtail, Setaria faberii), foxtail, green (green foxtail Setaria viridis), goosegrass (Eleusine indica), ragweed (common ragweed, Ambrosia elatior), barnyardgrass (Echinochloa crus-galli), sandbur (southern sandbur, Cenchrus echinatus), arrowleaf sida (Sida rhombifolia), ryegrass, Italian (Italian ryegrass, Lolium multiflorum), dayflower, VA (Virginia (VA) dayflower, Commelina virginica), field bindweed (Convolvulus arvensis), cocklebur (common cocklebur, Xanthium strumarium), morningglory (Ipomoea coccinea), nightshade (eastern black nightshade, Solanum ptycanthum), kochia (Kochia scoparia), nutsedge, yellow (yellow nutsedge, Cyperus esculentus), johnsongrass (Sorghum halepense), smartweed (ladysthumb smartweed, Polygonum persicaria), and beggarticks (hairy beggarticks, Bidens pilosa), were planted into a silt loam soil and treated preemergence with test chemicals formulated in a non-phytotoxic solvent mixture which included a surfactant. At the same time, plants selected from these crop and weed species and also pigweed (Amaranthus retroflexus), waterhemp_RES1 (ALS/Triazine resistant common waterhemp, Amaranthus rudis) and waterhemp_RES2 (ALS/HPPD resistant common waterhemp, Amaranthus rudis) were planted in pots containing a planting medium comprising spaghnum peat moss, vermiculite, wetting agent and starter nutrients treated with postemergence applications of some of the test chemicals formulated in the same manner. Plants ranged in height from 2 to 18 cm for postemergence treatments (1- to 4-leaf stage).
as §1, with “greenhouse” for “controlled growth environment”, “days,” for “days”, “E,” for “D,”

[3] = test system: field bindweed (Convolvulus arvensis); assay: Test F pre-/postemergence: field bindweed; assay type: in vivo
Text: as §2
as §1, with “greenhouse” for “controlled growth environment”, “days,” for “days”, “E,” for “D,”

[4] = test system: johnsongrass (Sorghum halepense); assay: Test F pre-/postemergence: johnsongrass; assay type: in vivo; conditions: Preemergence
Text: as §2
as §1, with “greenhouse” for “controlled growth environment”, “days,” for “days”, “E,” for “D,”

[5] = Postemergence, 31 g ai/ha, scale 0 to 100 (0 no effect, 100 complete control)
[6] = Postemergence, 62 g ai/ha, scale 0 to 100 (0 no effect, 100 complete control)
[7] = Postemergence, 125 g ai/ha, scale 0 to 100, 0 no effect, 100 complete control
[8] = Postemergence, 250 g ai/ha, scale 0 to 100 (0 no effect, 100 complete control)
[9] = Postemergence, 16 g ai/ha, scale 0 to 100
[10] = Preemergence, 16 g ai/ha, scale 0 to 100 (0 no effect, 100 complete control)
[11] = Preemergence, 31 g ai/ha, scale 0 to 100 (0 no effect, 100 complete control)
[12] = Preemergence, 62 g ai/ha, scale 0 to 100
[13] = Preemergence, 125 g ai/ha, scale 0 to 100
[14] = Preemergence, 250 g ai/ha, scale 0 to 100
[15] = 16 g ai/ha, scale 0 to 100 (0 no effect, 100 complete control)
[16] = 31 g ai/ha, scale 0 to 100 (0 no effect, 100 complete control)
[17] = 8 g ai/ha, scale 0 to 100, 0 no effect, 100 complete control
[18] = Postemergence, 8 g ai/ha, scale 0 to 100
[19] = Postemergence, 62 g ai/ha, scale 0 to 100

SMILES | Plant response rating: Radish, Wild [1, 5] | Plant response rating: Radish, Wild [1, 6] | Plant response rating: Radish, Wild [1, 7] | Plant response rating: Radish, Wild [1, 8] | Plant response rating, Radish, Wild [1, 9] | Plant response rating, Barnyardgrass (Barnyardgrass) | Plant response rating, Crabgrass, Large [2, 16] | Plant response rating, Crabgrass, Large ([2]; 62 g ai/ha, scale 0 to 100) | Plant response rating, Field Bindweed [3, 10] | Plant response rating, Field Bindweed [3, 11] | Plant response rating, Field Bindweed [3, 12] | Plant response rating, Johnsongrass [4, 15] | Plant response rating, Johnsongrass [4, 16] | also measured
Cc1nn(-c2ccc(F)cc2)nc1Oc1ccnc(C(F)(F)F)c1 [Compound 129, 4-[[2-(4-fluorophenyl)-5-methyl-2H-1,2,3-triazol-4-yl]oxy]-2-(trifluoromethyl)pyridine] | 90 | 100 | 100 | 100 | 90 | – | – | – | – | – | – | – | – | Plant response rating, Radish, Wild [1, 10]: 0; Plant response rating, Radish, Wild [1, 11]: 0; Plant response rating, Radish, Wild [1, 12]: 10; Plant response rating, Radish, Wild [1, 13]: 100; Plant response rating, Radish, Wild [1, 14]: 100
CCCc1nn(-c2ccc(F)cc2)nc1Cc1ccnc(C(F)(F)F)c1 [Compound 153] | – | – | – | – | – | 45 | 95 | 100 | 5 | 65 | 65 | 0 | 10 | Plant response rating, Crabgrass, Large [2, 15]: 80; Plant response rating, Crabgrass, Large ([2]; 125 g ai/ha, scale 0 to 100): 100; Plant response rating, Crabgrass, Large ([2]; 250 g ai/ha, scale 0 to 100): 100; Plant response rating, Field Bindweed [3, 13]: 100; Plant response rating, Field Bindweed [3, 14]: 100; Plant response rating, Johnsongrass ([4]; 62 g ai/ha, scale 0 to 100): 50; Plant response rating, Johnsongrass ([4]; 125 g ai/ha, scale 0 to 100): 100; Plant response rating, Johnsongrass ([4]; 250 g ai/ha, scale 0 to 100): 100
Cc1nn(-c2ccc(F)cc2)nc1Cc1ccnc(C(F)(F)F)c1 [Compound 16, 4-[[2-(4-fluorophenyl)-5-methyl-2H-1,2,3-triazol-4-yl]methyl]-2-(trifluoromethyl)pyridine] | 100 | 100 | 100 | 100 | 90 | – | – | – | – | – | – | – | – | –
Cc1nn(-c2ccc(F)c(C(F)(F)F)c2)nc1Oc1ccnc(C(F)(F)F)c1 [Compound 147] | 100 | 95 | 100 | – | 85 | – | – | – | – | – | – | – | – | Plant response rating, Radish, Wild [1, 11]: 10; Plant response rating, Radish, Wild [1, 12]: 100; Plant response rating, Radish, Wild [1, 13]: 100
CCCc1nn(-c2ccc(C(F)(F)F)c(F)c2)nc1Oc1ccnc(C(F)(F)F)c1 [Compound 185] | – | – | – | – | – | 70 | – | – | – | – | – | – | – | –
Cc1nn(-c2ccc(C(F)(F)F)c(F)c2)nc1Cc1ccnc(C(F)(F)F)c1 [Compound 162] | – | – | – | – | – | 90 | 95 | 100 | 5 | 5 | 5 | 20 | 20 | Plant response rating, Crabgrass, Large [2, 17]: 0; Plant response rating, Crabgrass, Large [2, 15]: 0; Plant response rating, Field Bindweed ([3]; Postemergence, 4 g ai/ha, scale 0 to 100): 20; Plant response rating, Field Bindweed [3, 18]: 20; Plant response rating, Field Bindweed [3, 9]: 20; Plant response rating, Field Bindweed ([3]; Postemergence, 31 g ai/ha, scale 0 to 100): 30; Plant response rating, Field Bindweed [3, 19]: 50; Plant response rating, Field Bindweed ([3]; Preemergence, 4 g ai/ha, scale 0 to 100, 0 no effect, 100 complete control): 0; Plant response rating, Field Bindweed ([3]; Preemergence, 8 g ai/ha, scale 0 to 100, 0 no effect, 100 complete control): 0; Plant response rating, Johnsongrass ([4]; 4 g ai/ha, scale 0 to 100, 0 no effect, 100 complete control): 20; Plant response rating, Johnsongrass [4, 17]: 20; Plant response rating, Johnsongrass ([4]; 62 g ai/ha, scale 0 to 100): 20
Cc1nn(-c2ccc(F)c(F)c2)nc1Oc1ccnc(C(F)(F)F)c1 [Compound 145] | – | – | – | – | – | – | – | – | – | – | – | – | – | Plant response rating, Field Bindweed [3, 18]: 50; Plant response rating, Field Bindweed [3, 9]: 60; Plant response rating, Field Bindweed [3, 19]: 70; Plant response rating, Field Bindweed ([3]; Postemergence, 125 g ai/ha, scale 0 to 100): 75
Cc1nn(-c2ccnc(C(F)(F)F)c2)nc1Cc1ccnc(C(F)(F)F)c1 [Compound 137] | 40 | 90 | 100 | 100 | 40 | – | – | – | – | – | – | – | – | –
CCc1nn(-c2ccc(F)cc2)nc1Oc1ccnc(C(F)(F)F)c1 [Compound 166] | – | – | – | – | – | 45 | – | – | – | – | – | – | – | –
Fc1ccc(-n2nc(Cc3ccnc(C(F)(F)F)c3)c(OCC(F)(F)F)n2)cc1 [Compound 142] | – | – | – | – | – | – | 20 | 98 | 20 | 50 | 75 | 0 | 5 | Plant response rating, Crabgrass, Large ([2]; 125 g ai/ha, scale 0 to 100): 100; Plant response rating, Field Bindweed [3, 13]: 98; Plant response rating, Johnsongrass ([4]; 125 g ai/ha, scale 0 to 100): 30
